Results taken from PMC12531613, “Synthesis and Biological Evaluation of Novel 2‐(Piperidin‐4‐yl)‐1,2,3,4‐tetrahydroisoquinoline and 2‐(Piperidin‐4‐yl)decahydroisoquinoline Antimycotics” (Archiv Der Pharmazie, 2025).
In brackets after ≈: the same amount, converted by molar mass. Like-named read-outs stand apart in the source and are kept apart here.

Assays:
Candida species = conditions: reported values; cited from earlier work
A. fumigatus (R7) = assay: MIC90 growth inhibition of molds (EUCAST), A. fumigatus (R7); assay type: cell-based; conditions: Aspergillus fumigatus
Method: (§1) Determination of MICs (minimal inhibitory concentration) against Candida species was carried out according to the European Committee of Antifungal Susceptibility Testing. Concentration of yeast cells was determined by photometer and adjusted to a turbidity of 0.5 according to McFarland standard. MIC90 was determined by microdilution plate reader (Sunrise Tecan) at 450 nm, after 24 h incubation at 37°C. MIC90 was defined as the minimal concentration of chemical causing 90% growth inhibition, respectively. Growth inhibition of molds was determined by eye and microscopically, following EUCAST guidelines. All substances were dissolved in DMSO and diluted in RPMI 1640 medium, containing 2% glucose. All assays were carried out twice.

Yarrowia lipolytica = assay: MIC100 microdilution assay against Yarrowia lipolytica; assay type: cell-based
Method: In previous research we found a good correlation between MIC values against Yarrowia lipolytica and pathogenic Candida species.
Determination of MICs against Yarrowia lipolytica (DSMZ, Braunschweig, Germany) was carried out according to lit. Yarrowia lipolytica was cultivated in AC‐agar (Sigma Aldrich). Concentration of yeast cells was determined by photometer and adjusted to a turbidity of 0.5 according to McFarland standard at 600 nm. All substances were dissolved in DMSO or methanol.
Determination of MICs (minimal inhibitory concentration) against Yarrowia lipolytica was carried out according to Lit.^[13] Concentration of yeast cells was determined by photometer and adjusted to a turbitity of 0.5 according to McFarland Standard.

C. krusei = assay: MIC90 microdilution (EUCAST), C. krusei; assay type: cell-based; conditions: Pichia kudriavzevii, 24 h
Method: as §1

A. fumigatus (R16) = assay: MIC90 growth inhibition of molds (EUCAST), A. fumigatus (R16); assay type: cell-based; conditions: Aspergillus fumigatus
Method: as §1

A. fumigatus (A65) = assay: MIC90 growth inhibition of molds (EUCAST), A. fumigatus (A65); assay type: cell-based; conditions: Aspergillus fumigatus, RPMI 1640, 2% glucose, read by eye and microscopically
Method: Determination of MICs (minimal inhibitory concentration) against Candida species was carried out according to the European Committee of Antifungal Susceptibility Testing. Concentration of yeast cells was determined by photometer and adjusted to a turbidity of 0.5 according to McFarland standard. […] Growth inhibition of molds was determined by eye and microscopically, following EUCAST guidelines. […] All assays were carried out twice.

C. albicans = assay: MIC90 microdilution (EUCAST), C. albicans; assay type: cell-based; conditions: Candida albicans, 24 h
Method: as §1

R. arrhizus (oryzae) = assay: MIC90 growth inhibition of molds (EUCAST), R. arrhizus (oryzae); assay type: cell-based; conditions: Rhizopus arrhizus
Method: as §1

Candida isolates = assay: MIC90 against Candida isolates; assay type: cell-based; conditions: span over the Candida isolates tested
Method: as §1

[1] = MTT cytotoxicity assay against HL 60 cells; assay type: cell-based; conditions: human
Method: The cytotoxicity of the active compounds was checked in an MTT assay against human HL 60 cells. […] Although, this corresponds to the MIC range that would be needed in treatment, the values are within the range observed for commonly used antimycotics such as amorolfine and posaconazole. All active compounds were evaluated for their biopharmaceutical behavior and drug‐likeness using the online program SwissADME [26] and should show oral bioavailability according to the Lipinski rules of five.
HL‐60 cells (human leukemia cells, DSM No. ACC3) were obtained from DSMZ (German Collection of Microorganisms and Cell Cultures, Braunschweig, Germany) and cultivated in RPMI 1640 medium with 10% fetal bovine serum (FBS), both from PAA Laboratories, Cölbe, Germany) without the addition of antibiotics at 37°C in a humidified atmosphere containing 5% CO2. The assay was performed according to lit.

R. microsporus = assay: MIC90 growth inhibition of molds (EUCAST), R. microsporus; assay type: cell-based; conditions: Rhizopus microsporus
Method: as §1

C. glabrata = assay: MIC90 microdilution (EUCAST), C. glabrata; assay type: cell-based; conditions: Nakaseomyces glabratus, 24 h
Method: as §1

molds = assay: Growth inhibition of molds; assay type: cell-based; conditions: against the molds
Method: as §1

[2] = 48 h, read-out: Biological Activity MIC Yarrowia lipolytica
[3] = read-out: MIC100 (molar value in brackets)
[4] = HL-60 cells (human leukemia cells), HL 60 cell line, MTT assay, read-out: IC50 cytotoxicity

Compound	MIC90 (A. fumigatus (R7))	MIC (Yarrowia lipolytica; [2])	MIC (Yarrowia lipolytica; 48 h, read-out: MIC100)	MIC (Yarrowia lipolytica; [3])	MIC90 (C. krusei)	MIC90 (A. fumigatus (R16))	MIC90 (A. fumigatus (A65))	MIC90 (C. albicans)	MIC90 (R. arrhizus (oryzae))	IC50 [1, 4]	MIC90 (R. microsporus)	MIC90 (C. glabrata)	growth inhibition at concentrations (molds) (molds)	further results
CC(Cc1ccc(C(C)(C)C)cc1)CN1C[C@@H](C)O[C@@H](C)C1 (stereo partly drawn) [fenpropimorph]														MIC values against Candida species (Candida species): 0.5 to 2 µg/mL
CCCCCCCCCCCCN1CCC(N2CCc3cc(OC)c(OC)cc3C2)CC1 [6f, 2‐(1‐Dodecylpiperidin‐4‐yl)‐6,7‐dimethoxy‐1,2,3,4‐tetrahydroisoquinoline]	> 32 µg/mL	3.1 µg/mL	3.1 µg/mL	7 µM	2 µg/mL (≈ 4.5 µM)	> 32 µg/mL	> 32 µg/mL	4 µg/mL (≈ 8.99 µM)	> 32 µg/mL	6 µg/mL (≈ 13.5 µM)	> 32 µg/mL			MIC90 (Candida isolates): 2 to 16 µg/mL (≈ 4.5 to 36 µM)
CC(C)=CCC/C(C)=C/CN1CCC(N2CCC3CCCCC3C2)CC1 (stereo not drawn) [6l, 2‐{1‐[(2E)‐3,7‐Dimethylocta‐2,6‐dien‐1‐yl]piperidin‐4‐yl}‐decahydroisoquinoline]	> 32 µg/mL	12.5 µg/mL	12.5 µg/mL	34.9 µM	4 µg/mL (≈ 11.2 µM)	> 32 µg/mL	> 32 µg/mL	32 µg/mL (≈ 89.2 µM)	16 µg/mL (≈ 44.6 µM)	26 µg/mL (≈ 72.5 µM)	> 32 µg/mL	> 32 µg/mL	16 to 32 µg/mL	
CC(C)=CCCC(C)CCN1CCC(N2CCC3CCCCC3C2)CC1 (racemic) [6k, (±)‐2‐[1‐(3,7‐Dimethyloct‐6‐en‐1‐yl)‐piperidin‐4‐yl]‐decahydroisoquinoline]	> 32 µg/mL	6.3 µg/mL	6.3 µg/mL	17.5 µM	8 µg/mL (≈ 22.2 µM)	> 32 µg/mL	> 32 µg/mL	16 µg/mL (≈ 44.4 µM)	16 µg/mL (≈ 44.4 µM)	17 µg/mL (≈ 47.1 µM)	> 32 µg/mL	> 32 µg/mL	16 to 32 µg/mL	
CC(Cc1ccc(C(C)(C)C)cc1)CN1CCCCC1 (stereo not drawn) [fenpropidin]														MIC values against Candida species (Candida species): 0.25 to 1 µg/mL
CCCCN1CCC(N2CCC3CCCCC3C2)CC1 (racemic) [6g, (±)‐2‐(1‐Butylpiperidin‐4‐yl)‐decahydroisoquinoline]							> 32 µg/mL							MIC90 (A. fumigatus (R7); A. fumigatus (R7), RPMI 1640, 2% glucose, read by eye and microscopically, read-out: MIC90): > 32 µg/mL; MIC (Yarrowia lipolytica; microdilution, 48 h, 25°C, 600 nm, read-out: MIC100): > 100 µg/mL; MIC (Yarrowia lipolytica; supplement table, MIC100, 48 h, 25°C, 600 nm, read-out: Biological Activity MIC Yarrowia lipolytica): > 100 µg/mL; MIC90 (C. krusei; C. krusei, RPMI 1640, 2% glucose, 37°C, duplicate, read-out: MIC90): > 32 µg/mL; MIC90 (C. glabrata; C. glabrata, RPMI 1640, 2% glucose, 37°C, duplicate, read-out: MIC90): > 32 µg/mL; MIC90 (A. fumigatus (R16); A. fumigatus (R16), RPMI 1640, 2% glucose, read by eye and microscopically, read-out: MIC90): > 32 µg/mL; MIC90 (C. albicans; C. albicans, RPMI 1640, 2% glucose, 37°C, duplicate, read-out: MIC90): > 32 µg/mL; MIC90 (R. arrhizus (oryzae); R. arrhizus (oryzae), RPMI 1640, 2% glucose, read by eye and microscopically, read-out: MIC90): > 32 µg/mL; IC50 [1]: > 100 µg/mL; MIC90 (R. microsporus; R. microsporus, RPMI 1640, 2% glucose, read by eye and microscopically, read-out: MIC90): > 32 µg/mL
CCCCCCCCCCCCN1CCC(N2CCC3CCCCC3C2)CC1 (racemic) [6i, (±)‐2‐(1‐Dodecylpiperidin‐4‐yl)‐decahydroisoquinoline]	32 µg/mL (≈ 81.9 µM)	1.6 µg/mL	1.6 µg/mL	4.1 µM		32 µg/mL (≈ 81.9 µM)	32 µg/mL (≈ 81.9 µM)		> 32 µg/mL	23 µg/mL (≈ 58.9 µM)	> 32 µg/mL	16 µg/mL (≈ 41 µM)	16 to 32 µg/mL	MIC90 (Candida isolates): 2 to 16 µg/mL (≈ 5.12 to 41 µM)
